Data: US20040018941A1, “Fused-benzene derivatives of thiouracil, herbicidal and desiccant compositions contaning them” (ISHIHARA SANGYO KAISHA, LTD., priority 2002, published 2004)

Columns and labels:
Format in all cases: in vivo
Conditions in all cases: rating 0-100 (0 no damage, 100 complete death), 14 days after application
[1] = test system: redroot pigweed (Amaranthus retroflexus, AMARE); assay: Pre-emerge herbicidal activity, greenhouse screen, AMARE
Excerpt: (§1) A standard greenhouse herbicide activity screening system was used to evaluate the herbicidal efficacy and crop safety of these test compounds. Seven broadleaf weed species including redroot pigweed (Amaranthus retroflexus, AMARE), velvetleaf (Abutilon theophrasti, ABUTH), sicklepod (Cassia obtusifolia, CASOB), ivyleaf morningglory (Ipomoea hederacea, IPOHE), lambsquarters (Chenopodium album, CHEAL), common ragweed (Ambrosia artemisiifolia L., AMBEL), and cocklebur (Xanthium strumarium, XANST) were used as test species. Four grass weed species including green foxtail (Setaria viridis, SETVI), barnyardgrass (Echinochloa crus-galli, ECHCG), johnsongrass (Sorghum halepense, SORHA), and large crabgrass (Digitaria sanguinalis, DIGSA) were also used. In addition, three crop species, field corn (Zea mays L., var. Dekalb 527, CORN), soybean (Glycine max L., var. Pella 86, SOY), and upland rice (Oryza sp., var. Tebonnet, RICE) were included.
(§2) All plants were grown in 10 cm square plastic pots which were filled with a sandy loam soil mix. For pre-emerge tests, seeds were planted one day prior to application of the test compounds. For post-emerge tests, seeds were planted 8-21 days prior to the test to allow emergence and good foliage development prior to application of the test substances. At the time of the post-emerge application, plants of all species were usually at the 2-3 leaf stage of development.
(§3) All test compounds were dissolved in acetone and applied to the test units in a volume of 187 l/ha. Test materials were applied at rates ranging from 15 g ai/ha to 1000 g ai/ha using a track sprayer equipped with a TJ8001 E even flow flat fan spray nozzle. Plants were arranged on a shelf so that the top of the canopy (post-emerge) or top of the soil surface (pre-emerge) was 40-45 cm below the nozzle. Pressurized air was used to force the test solution through the nozzle as it was mechanically advanced over the top of all test plants/pots. This application simulates a typical commercial field herbicide application.
(§4) In the post-emerge test, a commercial non-ionic surfactant was also included (0.25% v/v) to enhance wetting of the leaf surfaces of target plants. Immediately after application, test units of the pre-emerge applications were watered at the soil surface to incorporate the test materials.
(§5) At 14 days after application of the test materials, phytotoxicity ratings were recorded. A rating scale of 0-100 was used as previously described in Research Methods in Weed Science, 2nd edition, B. Truelove, Ed., Southern Weed Science Society, Auburn University, Auburn, Ala., 1977. Briefly, “0” corresponds to no damage and “100” corresponds to complete death of all plants in the test unit. This scale was used both to determine efficacy against weed species and damage to crop species. Herbicide activity data for various compounds of this invention, which are shown by compound No. in Tables 1-7, are shown in Tables 8 and 9.

[2] = test system: velvetleaf (Abutilon theophrasti, ABUTH); assay: Pre-emerge herbicidal activity, greenhouse screen, ABUTH
Excerpt: as §1, §2, §3, §4, §5

[3] = test system: sicklepod (Cassia obtusifolia, CASOB); assay: Pre-emerge herbicidal activity, greenhouse screen, CASOB
Excerpt: as §1, §2, §3, §4, §5

[4] = test system: ivyleaf morningglory (Ipomoea hederacea, IPOHE); assay: Pre-emerge herbicidal activity, greenhouse screen, IPOHE
Excerpt: as §1, §2, §3, §4, §5

[5] = test system: lambsquarters (Chenopodium album, CHEAL); assay: Pre-emerge herbicidal activity, greenhouse screen, CHEAL
Excerpt: as §1, §2, §3, §4, §5

[6] = test system: common ragweed (Ambrosia artemisiifolia L., AMBEL); assay: Pre-emerge herbicidal activity, greenhouse screen, AMBEL
Excerpt: as §1, §2, §3, §4, §5

[7] = test system: green foxtail (Setaria viridis, SETVI); assay: Pre-emerge herbicidal activity, greenhouse screen, SETVI
Excerpt: as §1, §2, §3, §4, §5

[8] = test system: barnyardgrass (Echinochloa crus-galli, ECHCG); assay: Pre-emerge herbicidal activity, greenhouse screen, ECHCG
Excerpt: as §1, §2, §3, §4, §5

[9] = test system: johnsongrass (Sorghum halepense, SORHA); assay: Pre-emerge herbicidal activity, greenhouse screen, SORHA
Excerpt: as §1, §2, §3, §4, §5

[10] = test system: large crabgrass (Digitaria sanguinalis, DIGSA); assay: Pre-emerge herbicidal activity, greenhouse screen, DIGSA
Excerpt: as §1, §2, §3, §4, §5

[11] = test system: field corn (Zea mays L., var. Dekalb 527, CORN); assay: Pre-emerge crop damage, greenhouse screen, CORN
Excerpt: as §1, §2, §3, §4, §5

[12] = test system: soybean (Glycine max L., var. Pella 86, SOY); assay: Pre-emerge crop damage, greenhouse screen, SOY
Excerpt: as §1, §2, §3, §4, §5

[13] = test system: upland rice (Oryza sp., var. Tebonnet, RICE); assay: Pre-emerge crop damage, greenhouse screen, RICE
Excerpt: as §1, §2, §3, §4, §5

[14] = test system: redroot pigweed (Amaranthus retroflexus, AMARE); assay: Post-emerge herbicidal activity, greenhouse screen, AMARE
Excerpt: as §1, §2, §3, §4, §5

[15] = test system: velvetleaf (Abutilon theophrasti, ABUTH); assay: Post-emerge herbicidal activity, greenhouse screen, ABUTH
Excerpt: as §1, §2, §3, §4, §5

[16] = test system: sicklepod (Cassia obtusifolia, CASOB); assay: Post-emerge herbicidal activity, greenhouse screen, CASOB
Excerpt: as §1, §2, §3, §4, §5

[17] = test system: ivyleaf morningglory (Ipomoea hederacea, IPOHE); assay: Post-emerge herbicidal activity, greenhouse screen, IPOHE
Excerpt: as §1, §2, §3, §4, §5

[18] = test system: lambsquarters (Chenopodium album, CHEAL); assay: Post-emerge herbicidal activity, greenhouse screen, CHEAL
Excerpt: as §1, §2, §3, §4, §5

[19] = test system: common ragweed (Ambrosia artemisiifolia L., AMBEL); assay: Post-emerge herbicidal activity, greenhouse screen, AMBEL
Excerpt: as §1, §2, §3, §4, §5

[20] = test system: green foxtail (Setaria viridis, SETVI); assay: Post-emerge herbicidal activity, greenhouse screen, SETVI
Excerpt: as §1, §2, §3, §4, §5

[21] = test system: barnyardgrass (Echinochloa crus-galli, ECHCG); assay: Post-emerge herbicidal activity, greenhouse screen, ECHCG
Excerpt: as §1, §2, §3, §4, §5

[22] = test system: johnsongrass (Sorghum halepense, SORHA); assay: Post-emerge herbicidal activity, greenhouse screen, SORHA
Excerpt: as §1, §2, §3, §4, §5

[23] = test system: large crabgrass (Digitaria sanguinalis, DIGSA); assay: Post-emerge herbicidal activity, greenhouse screen, DIGSA
Excerpt: as §1, §2, §3, §4, §5

[24] = test system: field corn (Zea mays L., var. Dekalb 527, CORN); assay: Post-emerge crop damage, greenhouse screen, CORN
Excerpt: as §1, §2, §3, §4, §5

[25] = test system: soybean (Glycine max L., var. Pella 86, SOY); assay: Post-emerge crop damage, greenhouse screen, SOY
Excerpt: as §1, §2, §3, §4, §5

[26] = test system: upland rice (Oryza sp., var. Tebonnet, RICE); assay: Post-emerge crop damage, greenhouse screen, RICE
Excerpt: as §1, §2, §3, §4, §5

## Cc1nc2c(Cl)cc(F)c(-n3c(=O)cc(C(F)(F)F)n(C)c3=S)c2o1 [Compound 1-2]
[1]; 63 g ai/ha
  Pre-emerge Herbicidal Activity AMARE: 100
[1]; 250 g ai/ha
  Pre-emerge Herbicidal Activity AMARE: 100
[2]; 63 g ai/ha
  Pre-emerge Herbicidal Activity ABUTH: 100
[2]; 250 g ai/ha
  Pre-emerge Herbicidal Activity ABUTH: 100
[3]; 63 g ai/ha
  Pre-emerge Herbicidal Activity CASOB: 100
[3]; 250 g ai/ha
  Pre-emerge Herbicidal Activity CASOB: 100
[4]; 63 g ai/ha
  Pre-emerge Herbicidal Activity IPOHE: 100
[4]; 250 g ai/ha
  Pre-emerge Herbicidal Activity IPOHE: 100
[5]; 63 g ai/ha
  Pre-emerge Herbicidal Activity CHEAL: 100
[5]; 250 g ai/ha
  Pre-emerge Herbicidal Activity CHEAL: 100
[6]; 63 g ai/ha
  Pre-emerge Herbicidal Activity AMBEL: 100
[6]; 250 g ai/ha
  Pre-emerge Herbicidal Activity AMBEL: 100
[7]; 63 g ai/ha
  Pre-emerge Herbicidal Activity SETVI: 100
[7]; 250 g ai/ha
  Pre-emerge Herbicidal Activity SETVI: 100
[8]; 63 g ai/ha
  Pre-emerge Herbicidal Activity ECHCG: 100
[8]; 250 g ai/ha
  Pre-emerge Herbicidal Activity ECHCG: 100
[9]; 63 g ai/ha
  Pre-emerge Herbicidal Activity SORHA: 100
[9]; 250 g ai/ha
  Pre-emerge Herbicidal Activity SORHA: 100
[10]; 63 g ai/ha
  Pre-emerge Herbicidal Activity DIGSA: 100
[10]; 250 g ai/ha
  Pre-emerge Herbicidal Activity DIGSA: 100
[11]; 63 g ai/ha
  Pre-emerge Herbicidal Activity CORN (crop damage): 100
[11]; 250 g ai/ha
  Pre-emerge Herbicidal Activity CORN (crop damage): 100
[12]; 63 g ai/ha
  Pre-emerge Herbicidal Activity SOY (crop damage): 100
[12]; 250 g ai/ha
  Pre-emerge Herbicidal Activity SOY (crop damage): 100
[13]; 63 g ai/ha
  Pre-emerge Herbicidal Activity RICE (crop damage): 99
[13]; 250 g ai/ha
  Pre-emerge Herbicidal Activity RICE (crop damage): 100
[14]; 63 g ai/ha
  Post-emerge Herbicidal Activity AMARE: 100
[14]; 250 g ai/ha
  Post-emerge Herbicidal Activity AMARE: 100
[15]; 63 g ai/ha
  Post-emerge Herbicidal Activity ABUTH: 100
[15]; 250 g ai/ha
  Post-emerge Herbicidal Activity ABUTH: 100
[16]; 63 g ai/ha
  Post-emerge Herbicidal Activity CASOB: 100
[16]; 250 g ai/ha
  Post-emerge Herbicidal Activity CASOB: 100
[17]; 63 g ai/ha
  Post-emerge Herbicidal Activity IPOHE: 100
[17]; 250 g ai/ha
  Post-emerge Herbicidal Activity IPOHE: 100
[18]; 63 g ai/ha
  Post-emerge Herbicidal Activity CHEAL: 100
[18]; 250 g ai/ha
  Post-emerge Herbicidal Activity CHEAL: 100
[19]; 63 g ai/ha
  Post-emerge Herbicidal Activity AMBEL: 100
[19]; 250 g ai/ha
  Post-emerge Herbicidal Activity AMBEL: 100
[20]; 63 g ai/ha
  Post-emerge Herbicidal Activity SETVI: 100
[20]; 250 g ai/ha
  Post-emerge Herbicidal Activity SETVI: 100
[21]; 63 g ai/ha
  Post-emerge Herbicidal Activity ECHCG: 100
[21]; 250 g ai/ha
  Post-emerge Herbicidal Activity ECHCG: 100
[22]; 63 g ai/ha
  Post-emerge Herbicidal Activity SORHA: 100
[22]; 250 g ai/ha
  Post-emerge Herbicidal Activity SORHA: 100
[23]; 63 g ai/ha
  Post-emerge Herbicidal Activity DIGSA: 99
[23]; 250 g ai/ha
  Post-emerge Herbicidal Activity DIGSA: 100
[24]; 63 g ai/ha
  Post-emerge Herbicidal Activity CORN (crop damage): 25
[24]; 250 g ai/ha
  Post-emerge Herbicidal Activity CORN (crop damage): 35
[25]; 63 g ai/ha
  Post-emerge Herbicidal Activity SOY (crop damage): 100
[25]; 250 g ai/ha
  Post-emerge Herbicidal Activity SOY (crop damage): 100
[26]; 63 g ai/ha
  Post-emerge Herbicidal Activity RICE (crop damage): 75
[26]; 250 g ai/ha
  Post-emerge Herbicidal Activity RICE (crop damage): 80
